Molecular target: T1, human heart chymase (Homo sapiens, UniProt P23946)
T1 sequence (P23946 22-247): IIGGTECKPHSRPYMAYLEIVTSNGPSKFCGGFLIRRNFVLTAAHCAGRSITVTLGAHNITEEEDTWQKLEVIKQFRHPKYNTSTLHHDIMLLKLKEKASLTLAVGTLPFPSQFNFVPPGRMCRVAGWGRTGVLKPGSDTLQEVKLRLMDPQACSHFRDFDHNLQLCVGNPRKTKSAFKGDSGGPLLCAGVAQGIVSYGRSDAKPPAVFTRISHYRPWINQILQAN
Assay: Inhibitory activity on amidase activity of human heart chymase
Type: biochemical
Details: 5 nM chymase; substrate succinyl-alanyl-alanyl-prolyl-phenylalanine-p-nitroanilide 2.5 mM; Tris-HCl (100 mM)-KCl (2 M), pH 7.5
Experimental: The effectiveness of the inhibitory activity of compound (I) and compound (XXVI) of the present invention was evaluated based on the inhibitory activity on amidase activity of human heart chymase, which was determined as in the following.
The inhibitory activity was quantitatively determined through variation in fractional residual activity of the enzyme caused by the inventive compound in defined serial concentration (<×1, <×10, <×100-fold equivalents) relative to 5 nM chymase in the presence of synthetic substrate, succinyl-alanyl-alanyl-prolyl-phenylalanine-p-nitroanilide (final concentration 2.5 mM). The inhibitory effect was analyzed by least square regression of Easson-Stedman plot (Proc. Roy. Soc. B. 1936, 121, p. 141) utilizing bimolecular equilibrium reaction linearization formula. The inhibitory activity was evaluated by the apparent inhibitory constant (Kiapp) obtained by this analysis and inhibitory constant (Ki) calculated from final substrate concentration in the reaction mixture and Km values separately determined. With regard to the quantlitative determination of initial rate of the enzyme reaction, the amount of p-nitroaniline produced by hydrolysis of the substrate was spectrophotometrically detected in terms of an increased absorbance which was obtained by subtracting absorbance at 650 nm wavelength from the absorbance at 405 nm. The chymase inhibitory activity of the compound of the present invention was calculated as ratio of residual activity in the presence of inhibitor relative to enzyme activity in the absence of inhibitor, and incorporation of the determination values was completed at a level less than initial rate guarantee absorbance at a concentration of the substrate used for the enzyme, after which analysis was performed.
The reaction mixture consisted of a buffer (pH 7.5, 140 μl) of Tris-HCl (100 mM) - KCl (2 M), the inventive compound dissolved in 20 μl of 10% dimethyl sulfoxide (DMSO), substrate dissolved in 20 μl of DMSO, and 20 μl of chymase, thus amounting to 200 μl in total.
Starting with the absorbance immediately after addition of the enzyme, increases in absorbance were recorded as a progressive curve taken precisely at equal time intervals.
From the above data, the difference between absorbances at completion of the reaction and immediately after addition was used to quantitatively determine the residual activity of the sample added with the inhibitor relative to a control wherein the inhibitor was not added. Alternatively, reaction rates of the control and the sample added with the inhibitor were calculated for certain time period (≥20 min) with successive shift (every 10 to 30 minutes) of the period, and the residual activity ratio was quantitatively determined and analyzed from the respective reaction rates averaged through the entire reaction time.

Row | Structure (SMILES) | Ki
1 | O=C(Cn1c(-c2ccc(F)cc2)ncc(NC(=O)OCc2ccccc2)c1=O)NC(Cc1ccccc1)C(=O)c1nccs1 (centres unmarked) [Example 21, 2-[5-benzyloxycarbonylamino-2-(4-fluorophenyl)-6-oxo-1,6-dihydro-1-pyrimidinyl]-N-[2-phenyl-1-[(2-thiazolyl)carbonyl]ethyl]acetamide] | 111 nM
2 | CCOC(=O)c1ccc2oc(C(=O)C(Cc3ccccc3)NC(=O)Cn3c(-c4cccnc4)ncc(N)c3=O)nc2c1 (centres unmarked) [Example 64, 2-[5-amino-6-oxo-2-(3-pyridyl)-1,6-dihydro-1-pyrimidinyl]-N-[1-[[5-(ethoxycarbonyl)benzoxazol-2yl]carbonyl]-2-phenylethyl]acetamide] | 45 nM
3 | CN(C)C(=O)c1ccc2oc(C(=O)C(Cc3ccccc3)NC(=O)Cn3c(-c4ccc(F)cc4)ncc(NC(=O)OCc4ccccc4)c3=O)nc2c1 (centres unmarked) [Example 31, 2-[5-benzyloxycarbonylamino-2-(4-fluorophenyl)-6-oxo-1,6-dihydro-1-pyrimidinyl]-N-[1-[[5-(dimethylaminocarbonyl)benzoxazol-2yl)carbonyl]-2-phenylethyl]acetamide] | 16 nM
4 | COC(=O)c1ccc2oc(C(=O)C(Cc3ccccc3)NC(=O)Cn3c(-c4cccc(N)c4)ncc(N)c3=O)nc2c1 (centres unmarked) [Example 93, 2-[5-amino-2-(3-aminophenyl)-6-oxo-1,6-dihydro-1-pyrimidinyl]-N-[1-[[5-(methoxycarbonyl)benzoxazol-2-yl]carbonyl]-2-phenylethyl]acetamide] | 6 nM
5 | COC(=O)c1ccc2oc(C(=O)C(Cc3ccccc3)NC(=O)Cn3c(-c4cccc([N+](=O)[O-])c4)ncc(N)c3=O)nc2c1 (centres unmarked) [Example 80, 2-[5-amino-2-(3-nitrophenyl)-6-oxo-1,6-dihydro-1-pyrimidinyl]-N-[1-[[5-(methoxycarbonyl)benzoxazol-2-yl]carbonyl]-2-phenylethyl]acetamide] | 42 nM
6 | Nc1cnc(-c2ccc(F)cc2)n(CC(=O)NC(Cc2ccccc2)C(=O)c2nc3cc(F)ccc3o2)c1=O (centres unmarked) [Example 26, 2-[5-amino-2-(4-fluorophenyl)-6-oxo-1,6-dihydro-1-pyrimidinyl]-N-[1-[(5-fluorobenzoxazol-2-yl)carbonyl]-2-phenylethyl]acetamide] | 93 nM
7 | Nc1cnc(-c2ccc(F)cc2)n(CC(=O)NC(Cc2ccccc2)C(=O)c2nc3cc(NS(=O)(=O)C(F)(F)F)ccc3o2)c1=O (centres unmarked) [Example 17, 2-[5-amino-2-(4-fluorophenyl)-6-oxo-1,6-dihydro-1-pyrimidinyl]-N-[1-[[5-(trifluoromethanesulfonylamino)benzoxazol-2-yl]carbonyl]-2-phenylethyl]acetamide] | 130 nM
8 | COC(=O)c1ccc2nc(C(=O)C(Cc3ccccc3)NC(=O)Cn3c(-c4ccc(F)cc4)ncc(N)c3=O)oc2c1 (centres unmarked) [Example 7, 2-[5-amino-2-(4-fluorophenyl)-6-oxo-1,6-dihydro-1-pyrimidinyl]-N-[1-[[6-(methoxycarbonyl)benzoxazol-2-yl]carbonyl]-2-phenylethyl]acetamide] | 56 nM
9 | O=C(Cn1c(-c2ccccc2)ncc(NC(=O)OCc2ccccc2)c1=O)NC(Cc1ccccc1)C(=O)c1nc2ncccc2o1 (centres unmarked) [Example 45, 2-(5-benzyloxycarbonylamino-6-oxo-2-phenyl-1,6-dihydro-1-pyrimidinyl)-N-[1-[(oxazolo[4,5-b]pyridin-2-yl)carbonyl]-2-phenylethyl]acetamide] | 24 nM
10 | COC(=O)c1ccc2oc(C(=O)C(Cc3ccccc3)NC(=O)Cn3c(-c4cccc(OC)c4)ncc(N)c3=O)nc2c1 (centres unmarked) [Example 88, 2-[5-amino-2-(3-methoxyphenyl)-6-oxo-1,6-dihydro-1-pyrimidinyl]-N-[1-[[5-(methoxycarbonyl)benzoxazol-2-yl]carbonyl]-2-phenylethyl]acetamide] | 5 nM
11 | Cc1cccc(-c2ncc(NC(=O)OCc3ccccc3)c(=O)n2CC(=O)NC(Cc2ccccc2)C(=O)c2nc3cc(C(N)=O)ccc3o2)c1 (centres unmarked) [Example 53, 2-[5-benzyloxycarbonylamino-6-oxo-2-(m-tolyl)-1,6-dihydro-1-pyrimidinyl]-N-[1-[(5-carbamoylbenzoxazol-2-yl)carbonyl]-2-phenylethyl]acetamide] | 66 nM
12 | COC(=O)c1ccc2oc(C(=O)C(Cc3ccccc3)NC(=O)Cn3c(-c4ccncc4)ncc(NC(=O)OCc4ccccc4)c3=O)nc2c1 (centres unmarked) [Example 73, 2-[5-benzyloxycarbonylamino-6-oxo-2-(4-pyridyl)-1,6-dihydro-1-pyrimidinyl]-N-[1-[[5-(methoxycarbonyl)benzoxazol-2-yl]carbonyl]-2-phenylethyl]acetamide] | 59 nM
13 | Nc1ccc2oc(C(=O)C(Cc3ccccc3)NC(=O)Cn3c(-c4ccc(F)cc4)ncc(N)c3=O)nc2c1 (centres unmarked) [Example 15, 2-[5-amino-2-(4-fluorophenyl)-6-oxo-1,6-dihydro-1-pyrimidinyl]-N-[1-[(5-aminobenzoxazol-2-yl)carbonyl]-2-phenylethyl]acetamide] | 183 nM
14 | CCOC(=O)c1ccc2oc(C(=O)C(Cc3ccccc3)NC(=O)Cn3c(-c4ccccc4)ncc(N)c3=O)nc2c1 (centres unmarked) [Example 44] | 2 nM
15 | O=CC(Cc1ccccc1)NC(=O)Cn1c(-c2ccc(F)cc2)ncc(NC(=O)OCc2ccccc2)c1=O (centres unmarked) [Example 9, 2-[5-benzyloxycarbonylamino-2-(4-fluorophenyl)-6-oxo-1,6-dihydro-1-pyrimidinyl]-N-(1-formyl-2-phenylethyl)acetamide] | 1840 nM

Other lines, results leading:

Row | Ki | Structure (SMILES)
16 | 58 nM | CC(=O)Nc1cnc(-c2ccc(F)cc2)n(CC(=O)NC(Cc2ccccc2)C(=O)c2nc3ccccc3o2)c1=O (centres unmarked) [Example 94, 2-[5-acetamide-2-(4-fluorophenyl)-6-oxo-1,6-dihydro-1-pyrimidinyl]-N-[1-[(benzoxazol-2-yl)carbonyl]-2-phenylethyl]acetamide]
17 | 990 nM | Nc1cnc(-c2ccc(F)cc2)n(CC(=O)NC(Cc2ccc(F)cc2)C(=O)c2nc3ccccc3o2)c1=O (centres unmarked) [Example 40, 2-[5-amino-2-(4-fluorophenyl)-6-oxo-1,6-dihydro-1-pyrimidinyl]-N-[1-[(benzoxazol-2-yl)carbonyl]-2-(4-fluorophenyl)ethyl]acetamide]
18 | 12 nM | CCN(CC)C(=O)c1ccc2oc(C(=O)C(Cc3ccccc3)NC(=O)Cn3c(-c4cccc(C)c4)ncc(N)c3=O)nc2c1 (centres unmarked) [Example 58, 2-[5-amino-6-oxo-2-(m-tolyl)-1,6-dihydro-1-pyrimidinyl]-N-[1-[[5-(diethylaminocarbonyl)benzoxazol-2-yl]carbonyl]-2-phenylethyl]acetamide]
19 | 74 nM | Nc1cnc(-c2cccnc2)n(CC(=O)NC(Cc2ccccc2)C(=O)c2nc3ncccc3o2)c1=O (centres unmarked) [Example 72, 2-[5-amino-6-oxo-2-(3-pyridyl)-1,6-dihydro-1-pyrimidinyl]-N-[1-[(oxazolo[4,5-b]pyridin-2-yl)carbonyl]-2-phenylethyl]acetamide]
20 | 48 nM | O=C(Cn1c(-c2ccc(F)cc2)ncc(NC(=O)OCc2ccccc2)c1=O)NC(Cc1ccccc1)C(=O)C1=NCCO1 (centres unmarked) [Example 23, 2-[5-benzyloxycarbonylamino-2-(4-fluorophenyl)-6-oxo-1,6-dihydro-1-pyrimidinyl]-N-[1-[(2-oxazolinyl)carbonyl]-2-phenylethyl]acetamide]
21 | 1300 nM | COC(=O)c1ccc2oc(C(=O)C(Cc3ccccc3)NC(=O)Cn3c(-c4ccc(F)cc4)ncc(NC(=O)OCc4ccccc4)c3=O)nc2c1 (centres unmarked) [Example 3, 2-[5-benzyloxycarbonylamino-2-(4-fluorophenyl)-6-oxo-1,6-dihydro-1-pyrimidinyl]-N-[1-[[5-(methoxycarbonyl)benzoxazol-2-yl]carbonyl]-2-phenylethyl]acetamide]
22 | 76 nM | Nc1cnc(-c2ccc(F)cc2)n(CC(=O)NC(Cc2ccccc2)C(=O)c2nc3cc(C(=O)O)ccc3o2)c1=O (centres unmarked) [Example 5, 2-[5-amino-2-(4-fluorophenyl)-6-oxo-1,6-dihydro-1-pyrimidinyl]-N-[1-[(5-carboxylbenzoxazol-2-yl)carbonyl]-2-phenylethyl]acetamide]
23 | 59 nM | CCNC(=O)c1ccc2oc(C(=O)C(Cc3ccccc3)NC(=O)Cn3c(-c4cccc(C)c4)ncc(NC(=O)OCc4ccccc4)c3=O)nc2c1 (centres unmarked) [Example 55, 2-[5-benzyloxycarbonylamino-6-oxo-2-(m-tolyl)-1,6-dihydro-1-pyrimidinyl]-N-[1-[[5-(ethylaminocarbonyl)benzoxazol-2-yl]carbonyl]-2-phenylethyl]acetamid]
